Like-named read-outs stand apart in the source and are kept apart here. Where only a bound is given, the exact number is not on record here.

Assay [1] deals with T1, glucocorticoid receptor (Homo sapiens, UniProt P04150).
T1 construct: a partially purified full length glucocorticoid receptor
T1 sequence (P04150 1-777): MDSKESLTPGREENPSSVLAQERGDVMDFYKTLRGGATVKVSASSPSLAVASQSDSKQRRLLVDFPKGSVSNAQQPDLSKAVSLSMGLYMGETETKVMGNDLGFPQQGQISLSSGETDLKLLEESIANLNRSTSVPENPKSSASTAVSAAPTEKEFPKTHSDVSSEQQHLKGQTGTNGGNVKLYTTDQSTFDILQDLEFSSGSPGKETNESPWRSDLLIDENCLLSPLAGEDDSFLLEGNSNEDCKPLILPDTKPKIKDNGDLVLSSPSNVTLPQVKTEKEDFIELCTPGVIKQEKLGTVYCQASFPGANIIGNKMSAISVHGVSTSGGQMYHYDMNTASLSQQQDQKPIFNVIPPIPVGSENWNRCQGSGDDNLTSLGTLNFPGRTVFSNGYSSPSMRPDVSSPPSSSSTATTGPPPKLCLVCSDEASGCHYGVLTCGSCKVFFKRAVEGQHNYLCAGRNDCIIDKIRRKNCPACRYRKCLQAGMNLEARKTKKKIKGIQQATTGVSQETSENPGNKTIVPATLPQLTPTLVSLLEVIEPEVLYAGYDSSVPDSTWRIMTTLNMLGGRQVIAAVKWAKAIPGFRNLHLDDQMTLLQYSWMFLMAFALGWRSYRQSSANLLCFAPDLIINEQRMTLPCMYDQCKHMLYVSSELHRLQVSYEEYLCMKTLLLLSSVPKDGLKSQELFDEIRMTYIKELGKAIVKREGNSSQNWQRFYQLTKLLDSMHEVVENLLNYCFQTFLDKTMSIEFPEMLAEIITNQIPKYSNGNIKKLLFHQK
As to the kind of experiment: Glucocorticoid Receptor Binding Assay (fluorescence polarisation, displacement of Alexa 555 labelled dexamethasone derivative). The settings on record: at least once in this assay; read-out: glucocorticoid binding pIC50 (converted). The gist of the method: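 Partially purified full-length GR incubated with test compound and fluorescent dexamethasone plus GR-stabilising buffer components, 2 hr at room temperature in the dark. Binding scored as displacement of tracer, read as decrease in fluorescence polarisation.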

Assay [2] has as its target T2, Progesterone Receptor (Homo sapiens, UniProt P06401).
T2 construct: expressed in transfected cells; host or cells: CV-1 cells transduced with PRb-BacMam and MMTV-BacMam
T2 sequence (P06401 1-933): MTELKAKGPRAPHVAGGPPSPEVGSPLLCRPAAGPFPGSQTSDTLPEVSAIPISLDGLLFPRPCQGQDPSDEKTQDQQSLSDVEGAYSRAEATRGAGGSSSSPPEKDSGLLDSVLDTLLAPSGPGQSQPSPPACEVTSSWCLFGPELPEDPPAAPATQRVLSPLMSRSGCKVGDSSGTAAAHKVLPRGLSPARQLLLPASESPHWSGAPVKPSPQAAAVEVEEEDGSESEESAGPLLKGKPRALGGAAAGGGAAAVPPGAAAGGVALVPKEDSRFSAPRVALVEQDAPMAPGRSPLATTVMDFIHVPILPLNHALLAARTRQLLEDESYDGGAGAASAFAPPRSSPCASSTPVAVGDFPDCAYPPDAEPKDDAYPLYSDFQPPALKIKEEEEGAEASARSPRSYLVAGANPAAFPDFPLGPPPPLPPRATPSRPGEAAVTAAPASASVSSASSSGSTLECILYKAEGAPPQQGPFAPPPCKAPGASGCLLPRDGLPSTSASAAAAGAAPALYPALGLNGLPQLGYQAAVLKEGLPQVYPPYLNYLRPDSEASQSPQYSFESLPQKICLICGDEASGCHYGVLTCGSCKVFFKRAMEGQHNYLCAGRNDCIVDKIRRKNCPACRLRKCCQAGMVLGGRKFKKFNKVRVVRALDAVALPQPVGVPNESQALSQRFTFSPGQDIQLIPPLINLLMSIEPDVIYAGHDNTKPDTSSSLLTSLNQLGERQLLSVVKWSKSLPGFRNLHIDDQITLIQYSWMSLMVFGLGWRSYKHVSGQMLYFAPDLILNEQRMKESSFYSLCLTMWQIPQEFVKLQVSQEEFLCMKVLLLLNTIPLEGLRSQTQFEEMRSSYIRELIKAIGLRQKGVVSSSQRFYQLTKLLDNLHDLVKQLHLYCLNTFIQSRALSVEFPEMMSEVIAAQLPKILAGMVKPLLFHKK
The assay can be described thus: Assay for Progesterone Receptor Agonist Activity (CV-1 cells, PRb-BacMam, MMTV-BacMam). The settings on record: at least once in this assay, read-out: progesterone receptor agonist pEC50 (converted). The assay is classed as cell-based. As to the method: A T225 flask of CV-1 cells at a density of 80% confluency was washed with PBS, detached from the flask using 0.25% trypsin and counted using a Sysmex KX-21N. Cells were diluted in DMEM containing 10% Hyclone, 2 mM […] and 1% Pen/Strep at 140 cells/μl and transduced with 10% PRb-BacMam and 10% MMTV-BacMam. […] of suspension cells were dispensed to each well of white Nunc 384-well plates, containing compounds at the required concentration. After 24 hr 10 μl of Steadylite were added to each well of the plates. Plates were incubated in the dark for 10 min before reading them on a Viewlux reader. Dose response curves were constructed from which pEC50 values were estimated.

Assay [3] addresses T3, GR (Homo sapiens, UniProt P04150).
T3 construct: endogenous in cells; host or cells: A549 (human lung carcinoma, ECACC No. 86012804), stably transfected with reporter plasmids only
T3 sequence (P04150 1-777): T1 sequence (P04150 1-777)
The assay can be described thus: GR Functional Assay - NFκB Assay (A549 SPAP cells, TNFα stimulated). The assay is classed as cell-based. The settings on record: for Emax: agonists, read-out: average maximum asymptote in the NFkB assay. The gist of the method:
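Stably transfected A549 SPAP cells at 0.16×10^6/ml in DMEM with 10% FCS were added to compound and stimulated with TNFα to drive NFκB-dependent SPAP expression. After 1 hr equilibration at room temperature, SPAP was read colorimetrically with pNPP in diethanolamine buffer, pH 9.8.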

For assay [4], the target named is T3, GR. As to the kind of experiment: GR Agonist Assay - MMTV Assay (A549 MMTV cells, renilla luciferase reporter). The assay is classed as cell-based. The settings on record: 6 h, agonists, read-out: average maximum asymptote in the MMTV agonist assay. A digest of the protocol:
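Stably transfected A549 MMTV cells carry a GR-driven luciferase reporter. Cells at 0.1×10^6/ml in DMEM with 10% FCS and 25 mM HEPES were added to wells containing compound. After detection reagent, plates were held about 15 mins at room temperature and luminescence was read.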

[5] abbreviates: at least once in the NFkB assay, A549 SPAP cells, read-out: pIC50 in the NFkB assay (converted).
Setting [6] is: at least once, examples listed as agonists in NFkB and MMTV assays, read-out: potency pIC50 in the NFKB assay (converted).

Regarding `CCN(CC(O)(CNC(=O)c1cnn(-c2ccc(F)cc2)c1N)C(F)(F)F)C(=O)c1ccccc1F` (racemic) [Example 4 (racemic), 5-Amino-N-[2-({ethyl[(2-fluorophenyl)carbonyl]amino}methyl)-3,3,3-trifluoro-2-hydroxypropyl]-1-(4-fluorophenyl)-1H-pyrazole-4-carboxamide], the IC50 is below 1000 nM in assay [1], below 1000 nM in assay [3] (setting [5]) and below 316 nM in assay [3] (setting [6]). For the same compound, the EC50 in assay [2] is above 1000 nM. Moreover, the Emax in assay [3] (A549 SPAP cells) and in assay [4] was at least 40% in each case.

For `CN(CC(O)(CNC(=O)c1cnn(-c2ccc(F)cc2)c1N)C(F)(F)F)C(=O)c1ccccc1F` (racemic) [Example 6 (racemic), 5-amino-1-(4-fluorophenyl)-N-(3,3,3-trifluoro-2-{[[(2-fluorophenyl)car-bonyl](methyl)amino]methyl}-2-hydroxypropyl)-1H-pyrazole-4-carboxamide], the IC50 in assay [1] was below 1000 nM; in assay [3] (setting [5]), below 1000 nM; in assay [3] (setting [6]), below 316 nM. The EC50 in assay [2] was above 1000 nM. Besides, the Emax in assay [3] (A549 SPAP cells) and in assay [4] was at least 40% each time.

`CN(CC(O)(CNC(=O)c1cnn(-c2ccc(F)cc2)c1N)C(F)(F)F)C(=O)c1ccccc1Cl` (racemic) [Example 7 (racemic), 5-amino-N-(2-{[[(2-chlorophenyl)car-bonyl](methyl)amino]methyl}-3,3,3-trifluoro-2-hydroxypropyl)-1-(4-fluorophenyl)-1H-pyrazole-4-carboxamide]: the IC50 in assay [1] is below 1000 nM; in assay [3] (setting [5]) it was below 1000 nM; in assay [3] (setting [6]) it was below 316 nM. Further, in assay [2], the EC50 was above 1000 nM. The Emax in assay [3] (A549 SPAP cells) and in assay [4] was at least 40% in each case.

For `CCN(CC(O)(CNC(=O)c1cnn(-c2ccc(F)cc2)c1N)C(F)(F)F)C(=O)c1ccccc1C(F)(F)F` (racemic) [Example 9 (racemic), 5-amino-N-{2-[(ethyl{[2-(trifluoromethyl)phenyl]carbonyl}amino)methyl]-3,3,3-trifluoro-2-hydroxypropyl}-1-(4-fluorophenyl)-1H-pyrazole-4-carboxamide], the results for the IC50 in assay [1], in assay [3] (setting [5]) and in assay [3] (setting [6]) were below 1000 nM, below 1000 nM and below 316 nM, respectively. The EC50 in assay [2] is above 1000 nM. In addition, the Emax in assay [3] (A549 SPAP cells) and in assay [4] was at least 40% each time.

As to `CCN(CC(O)(CNC(=O)c1cnn(-c2ccc(F)cc2)c1N)C(F)(F)F)C(=O)c1ccccc1` (racemic) [Example 14 (racemic), 5-amino-N-(2-{[ethyl(phenylcar-bonyl)amino]methyl}-3,3,3-trifluoro-2-hydroxypropyl)-1-(4-fluorophenyl)-1H-pyrazole-4-carboxamide], the figures for the IC50 in assay [1], in assay [3] (setting [5]) and in assay [3] (setting [6]) were below 1000 nM, below 1000 nM and below 316 nM, respectively. Besides, the EC50 in assay [2] was above 1000 nM. For the same compound, the Emax in assay [3] (A549 SPAP cells) and in assay [4] was at least 40% each time.

With `Nc1c(C(=O)NCC(O)(CN(CCF)C(=O)c2ccccc2Cl)C(F)(F)F)cnn1-c1ccc(F)cc1` (racemic) [Example 15 (racemic), 5-amino-N-(2-{[[(2-chlorophenyl)car-bonyl](2-fluoroethyl)amino]methyl}-3,3,3-trifluoro-2-hydroxypropyl)-1-(4-fluorophenyl)-1H-pyrazole-4-carboxamide], the IC50 was below 1000 nM in assay [1], below 1000 nM in assay [3] (setting [5]) and below 316 nM in assay [3] (setting [6]). The EC50 in assay [2] was above 1000 nM. Further, the Emax in assay [3] (A549 SPAP cells) and in assay [4] was at least 40% each time.

Consider `CCN(CC(O)(CNC(=O)c1cnn(-c2ccccc2)c1N)C(F)(F)F)C(=O)c1ccccc1F` (racemic) [Example 45 (racemic), 5-amino-N-[2-({ethyl[(2-fluorophenyl)car-bonyl]amino}methyl)-3,3,3-trifluoro-2-hydroxypropyl]-1-phenyl-1H-pyrazole-4-carboxamide], for which the IC50 is below 1000 nM in assay [1], below 1000 nM in assay [3] (setting [5]) and below 316 nM in assay [3] (setting [6]). The EC50 in assay [2] was above 1000 nM. In addition, the Emax in assay [3] (A549 SPAP cells) and in assay [4] was at least 40% in each case.

As to `CCN(CC(O)(CNC(=O)c1cnn(-c2ccccc2)c1N)C(F)(F)F)C(=O)c1ccccc1Cl` (racemic) [Example 46 (racemic), 5-amino-N-(2-{[[(2-chlorophenyl)car-bonyl](ethyl)amino]methyl}-3,3,3-trifluoro-2-hydroxypropyl)-1-phenyl-1H-pyrazole-4-carboxamide], the figures for the IC50 in assay [1], in assay [3] (setting [5]) and in assay [3] (setting [6]) were below 1000 nM, below 1000 nM and below 316 nM, respectively. For the same compound, in assay [2], the EC50 is above 1000 nM. For the same compound, the Emax in assay [3] (A549 SPAP cells) and in assay [4] was at least 40% throughout.

`Nc1c(C(=O)NCC(O)(CN(CCF)C(=O)c2ccccc2F)C(F)(F)F)cnn1-c1ccc(F)cc1` (single isomer, unassigned) [Example 2 Enantiomer 1, 5-Amino-1-(4-fluorophenyl)-N-[3,3,3-trifluoro-2-([(2-fluoroethyl)[(2-fluorophenyl)carbonyl]amino]methyl)-2-hydroxypropyl]-1H-pyrazole-4-carboxamide]: the IC50 in assay [1] is below 1000 nM; in assay [3] (setting [5]), below 1000 nM; in assay [3] (setting [6]), below 316 nM. Also, in assay [2], the EC50 was above 1000 nM. Also, the Emax in assay [3] (A549 SPAP cells) and in assay [4] was at least 40% throughout.

(Values after patent US20100035926A1, “PYRAZOLE DERIVATIVES AS NON-STEROIDAL GLUCOCORTICOID RECEPTOR LIGANDS” (priority 2006, published 2010).)
